Tested on: spontaneously hypertensive rats (SHR)
Assay: Mean arterial blood pressure (MABP) and heart rate recording in conscious, unrestrained SHR after acute oral administration
Format: in vivo, rat
Settings: 1 hour (FIG. 2)
Experimental: RB150, the ACEI, enalapril (supplied from Merck Sharp and Dohme research Lab), and the ARB, valsartan (Sigma-Aldrich), were dissolved in sterile saline and adjusted to pH 7.4 for in vivo administration.
Male spontaneously hypertensive rats (SHR), weighing 250 to 350 g, were obtained from Charles River Laboratories (L'Arbresle, France) and animals were kept under artificial light (12-hours light/12-hours dark cycle) with a normal standard diet and water given ad libitum. The experiments were conducted according to the National Institutes of Health Guide for the Care and Use of Laboratory Animals.
Twelve weeks male SHR were anesthetized with pentobarbital sodium (60 mg/kg, i.p, Centravet). Catheters were implanted in the femoral artery. The femoral arterial catheter was brought under the skin and emerged at the nape of the neck. After surgery, each rat was given an intraperitoneal injection of 0.1 mL of penicillin-streptomycin (50,000 units/mL; Sigma) and allowed to recover for at least 24 hours before the experiment. […] Each experiment was monitored by using a COBE CDX III pressure transducer (Phymep, Paris, France) connected to the MacLab system (Phymep) consisting of a MacLab hardware unit and chart software running on a Macintosh computer. […]

Row | Structure (SMILES) | BP decrease 1 hour after drug administration (enalapril alone 3 mg/kg po) | BP decrease 1 hour after drug administration (RB150 alone 150 mg/kg po)
1 | CCOC(=O)[C@H](CCc1ccccc1)N[C@@H](C)C(=O)N1CCC[C@H]1C(=O)O [enalapril] | did not induce any significant BP decrease | 
2 | N[C@@H](CCS(=O)(=O)O)CSSC[C@@H](N)CCS(=O)(=O)O [RB150, (3S,3S′) 4,4′-disulfanediylbis(3-aminobutane 1-sulfonic acid)] |  | did not induce any significant BP decrease

From US10959938B2, “Combination of (3S,3S′) 4,4′-disulfanediylbis(3-aminobutane 1-sulfonic acid) and a second antihypertensive agent” (QUANTUM GENOMICS, priority 2011, dated 2021)
